Like-named read-outs stand apart in the source and are kept apart here.
What was measured:
Alternaria brassicae = assay: In vivo preventive test on Alternaria brassicae (leaf spot on radish), Examples A and R1; settings: for pest or weed control at 500 ppm / pest or weed control at 100 ppm: Alternaria brassicae, 144 h
Sphaerotheca fuliginea = assay: In vivo preventive test on Sphaerotheca fuliginea (powdery mildew on cucurbits), Examples F and R6; settings: Podosphaera fuliginea, 360 h, preventive spray, evaluated 15 days after inoculation
[1] = Measurement of LogP values by HPLC on reversed phase columns (EEC directive 79/831 Annex V.A8); type: physicochemical; settings: method [a]: LC-UV, acidic range, 0.1% formic acid in water and acetonitrile as eluent; Table 1
Procedure: Measurement of Log P values was performed as outlined above.

Uromyces appendiculatus = assay: In vivo preventive test on Uromyces appendiculatus (bean rust), Examples G and R7; settings: 264 h, preventive spray, evaluated 11 days after inoculation
Puccinia recondita = assay: In vivo preventive test on Puccinia recondita (brown rust on wheat), Examples C and R3; settings: Puccinia recondita, 264 h, preventive spray, evaluated 11 days after inoculation
Septoria tritici = assay: In vivo preventive test on Septoria tritici (leaf spot on wheat), Examples E, Q3 and R5; settings: Zymoseptoria tritici, 576 h, preventive spray, evaluated 24 days after inoculation
Botrytis cinerea = assay: In vivo preventive test on Botrytis cinerea (grey mould) on gherkin, Examples B, Q1 and R2; settings: Botrytis cinerea, 500 ppm of active ingredient, preventive spray, evaluated 4 to 5 days after inoculation, read-out: efficacy
Alternaria solani = assay: In vivo preventive Alternaria test (tomatoes), Example H; settings: 72 h, 100 ppm of active ingredient, preventive spray, evaluated 3 days after inoculation, read-out: efficacy
Phakopsora pachyrhizi = assay: In vivo preventive Phakopsora test (soybeans), Example I; settings: 168 h, 100 ppm of active ingredient, preventive spray, evaluated 7 days after inoculation, read-out: efficacy
Pyrenophora teres = assay: In vivo preventive test on Pyrenophora teres (net blotch on barley), Examples D, Q2 and R4; settings: Pyrenophora teres, 336 h, 500 ppm of active ingredient, preventive spray, evaluated 14 days after inoculation, read-out: efficacy
[2] = tested on: Blumeria graminis fsp. hordei; assay: In vivo preventive Blumeria test (barley), Example K; settings: 168 h, 500 ppm of active ingredient, preventive spray, evaluated 7 days after inoculation, read-out: efficacy
Text: After the spray coating has been dried, the plants are dusted with spores of Blumeria graminis fsp. hordei.

[3] = 500 ppm of active ingredient, preventive spray, evaluated 6 days after inoculation, read-out: efficacy
[4] = Example R1, rate of application 100 ppm, read-out: Efficacy in %
[5] = Example R1, rate of application 500 ppm, read-out: Efficacy in %
[6] = 500 ppm of active ingredient, gherkin, read-out: efficacy
[7] = 500 ppm of active ingredient, bean, read-out: efficacy
[8] = 500 ppm of active ingredient, wheat, read-out: efficacy

Row | Structure (SMILES) | pest or weed control at 500 ppm (Alternaria brassicae; [3]) | pest or weed control at 500 ppm (Sphaerotheca fuliginea; [6]) | chromatographic logP [1] | pest or weed control at 500 ppm (Uromyces appendiculatus; [7]) | pest or weed control at 500 ppm (Puccinia recondita; [8]) | pest or weed control at 500 ppm (Septoria tritici; [8]) | pest or weed control at 500 ppm (Botrytis cinerea) | pest or weed control at 500 ppm (Pyrenophora teres) | other results
1 | OC(Cc1ccc(Cl)cc1F)(Cn1ccc(Cl)c1)C1(Cl)CC1 (racemic) [reference compound] |  |  |  |  |  |  |  |  | Efficacy in % (Alternaria brassicae; Example R1, rate of application 100 ppm): 0%; Efficacy in % (Alternaria brassicae; Example R1, rate of application 500 ppm): 0%
2 | Cc1cncn1CC(O)(Cc1ccccc1Cl)C1(Cl)CC1 (centres unmarked) [Example I-03] | 80 to 89% | 90 to 100% | 1.72 | 90 to 100% | 80 to 89% | 90 to 100% |  |  | pest or weed control at 100 ppm (Alternaria brassicae; [4]): 0%; pest or weed control at 500 ppm (Alternaria brassicae; [5]): 83%; pest or weed control at 100 ppm (Sphaerotheca fuliginea; Example R6, gherkin, 100 ppm, read-out: Efficacy in %): 85%; pest or weed control at 500 ppm (Sphaerotheca fuliginea; Example R6, gherkin, 500 ppm, read-out: Efficacy in %): 100%; pest or weed control at 100 ppm (Uromyces appendiculatus; Example R7, bean, 100 ppm, read-out: Efficacy in %): 81%; pest or weed control at 500 ppm (Uromyces appendiculatus; Example R7, bean, 500 ppm, read-out: Efficacy in %): 100%; pest or weed control at 100 ppm (Puccinia recondita; Example R3, wheat, 100 ppm, read-out: Efficacy in %): 86%; pest or weed control at 500 ppm (Puccinia recondita; Example R3, wheat, 500 ppm, read-out: Efficacy in %): 86%; pest or weed control at 100 ppm (Septoria tritici; Example R5, wheat, 100 ppm, read-out: Efficacy in %): 83%; pest or weed control at 500 ppm (Septoria tritici; Example R5, wheat, 500 ppm, read-out: Efficacy in %): 100%
3 | OC(Cn1cncc1Cl)(C(F)c1ccccc1Cl)C1(Cl)CC1 (centres unmarked) [Example I-05] |  | 90 to 100% | 2.17 | 90 to 100% | 80 to 89% | 80 to 89% | 90 to 100% |  | pest or weed control at 100 ppm (Alternaria solani): 70 to 79%; pest or weed control at 100 ppm (Phakopsora pachyrhizi): 90 to 100%
4 | Cc1cncn1CC(O)(C(F)c1ccccc1Cl)C1(Cl)CC1 (centres unmarked) [Example I-13] | 70 to 79% | 90 to 100% | 1.75 |  | 80 to 89% | 90 to 100% | 80 to 89% | 80 to 89% | 
5 | OC(Cc1ccccc1Cl)(Cn1cncc1C(F)(F)F)C1(Cl)CC1 (centres unmarked) [Example I-15] | 90 to 100% | 90 to 100% | 3.63 | 90 to 100% | 80 to 89% | 90 to 100% | 70 to 79% | 90 to 100% | 
6 | CC(=O)c1cncn1CC(O)(Cc1ccccc1Cl)C1(Cl)CC1 (centres unmarked) [Example I-19] | 80 to 89% | 90 to 100% |  |  | 90 to 100% | 90 to 100% |  | 80 to 89% | 
7 | OC(Cc1ccccc1Cl)(Cn1cncc1-c1cccs1)C1(Cl)CC1 (centres unmarked) [Example I-20] | 80 to 89% | 90 to 100% |  | 90 to 100% | 80 to 89% | 80 to 89% |  |  | 
8 | OC(Cn1cncc1Br)(C(F)c1ccccc1Cl)C1(Cl)CC1 (centres unmarked) [Example I-23] | 80 to 89% | 90 to 100% | 2.32 | 90 to 100% | 90 to 100% | 90 to 100% |  | 80 to 89% | pest or weed control at 100 ppm (Phakopsora pachyrhizi): 90 to 100%
9 | Cc1ccccc1CC(O)(Cn1cncc1C#N)C1(Cl)CC1 (centres unmarked) [Example I-54] | 80 to 89% | 90 to 100% |  | 90 to 100% | 80 to 89% | 90 to 100% | 90 to 100% | 80 to 89% | 
10 | COc1ccccc1CC(O)(Cn1cncc1C#N)C1(Cl)CC1 (centres unmarked) [Example I-55] | 80 to 89% | 90 to 100% | 2.93 | 90 to 100% | 90 to 100% | 90 to 100% | 90 to 100% | 80 to 89% | 
11 | N#Cc1cncn1CC(O)(Cc1ccnc(Cl)c1)C1(Cl)CC1 (centres unmarked) [Example I-62] |  | 90 to 100% | 2.04 | 90 to 100% | 90 to 100% | 90 to 100% |  | 90 to 100% | pest or weed control at 500 ppm [2]: 90 to 100%
12 | OC(Cc1cccc(Cl)c1Cl)(Cn1cncc1Cl)C1(Cl)CC1 (centres unmarked) [Example I-66] | 70 to 79% | 90 to 100% | 2.69 | 90 to 100% | 90 to 100% | 90 to 100% | 70 to 79% | 90 to 100% | 
13 | OC(Cc1ccnc(Cl)c1)(Cn1cncc1Cl)C1(Cl)CC1 (centres unmarked) [Example I-75] |  | 90 to 100% | 1.62 | 90 to 100% | 70 to 79% | 90 to 100% | 80 to 89% | 80 to 89% | pest or weed control at 500 ppm [2]: 90 to 100%
14 | N#Cc1cncn1CC(O)(Cc1ccccc1Cl)C1CC1 (centres unmarked) [Example I-80] |  | 90 to 100% | 2.57 | 90 to 100% | 80 to 89% | 90 to 100% |  | 80 to 89% | pest or weed control at 500 ppm [2]: 90 to 100%
15 | CC1(C(O)(Cc2ccccc2F)Cn2cncc2C#N)CC1 (centres unmarked) [Example I-131] |  | 90 to 100% | 2.68 | 90 to 100% | 90 to 100% | 90 to 100% | 70 to 79% | 80 to 89% | 
16 | N#Cc1cncn1CC(O)(Cc1ccccc1F)C1CC1 (centres unmarked) [Example I-136] |  | 90 to 100% |  | 90 to 100% | 90 to 100% | 90 to 100% |  |  | pest or weed control at 500 ppm [2]: 90 to 100%
17 | CC(C)C(O)(Cc1ccccc1F)Cn1cncc1C#N (centres unmarked) [Example I-139] |  | 90 to 100% | 2.4 | 90 to 100% | 90 to 100% | 90 to 100% | 90 to 100% | 70 to 79% | 
18 | Cc1cccc(CC(O)(Cn2cncc2C#N)C2(Cl)CC2)c1F (centres unmarked) [Example I-142] |  | 90 to 100% | 2.99 | 90 to 100% | 80 to 89% | 70 to 79% | 80 to 89% | 80 to 89% | 
19 | OC(Cc1ccc(F)cc1)(Cn1cncc1Cl)C1(Cl)CC1 (centres unmarked) [Example I-158] |  | 90 to 100% | 2.13 | 90 to 100% | 80 to 89% | 90 to 100% | 90 to 100% | 90 to 100% | pest or weed control at 100 ppm (Alternaria solani): 90 to 100%; pest or weed control at 100 ppm (Phakopsora pachyrhizi): 90 to 100%
20 | OC(Cc1ccccc1Cl)(Cn1cnc(Br)c1)C1(Cl)CC1 (centres unmarked) [drawing 59, reference compound] |  |  |  |  |  |  |  |  | pest or weed control at 100 ppm (Alternaria brassicae; [4]): 0%; pest or weed control at 500 ppm (Alternaria brassicae; [5]): 40%
21 | Cc1cn(CC(O)(Cc2ccccc2Cl)C2(Cl)CC2)cn1 (centres unmarked) [drawing 61, reference compound] |  |  |  |  |  |  |  |  | pest or weed control at 100 ppm (Alternaria brassicae; [4]): 0%; pest or weed control at 500 ppm (Alternaria brassicae; [5]): 0%
22 | OC(Cc1ccccc1F)(Cn1cnc(Cl)c1)C1(Cl)CC1 (centres unmarked) [drawing 63, reference compound] |  |  |  |  |  |  |  |  | pest or weed control at 100 ppm (Alternaria brassicae; [4]): 0%; pest or weed control at 500 ppm (Alternaria brassicae; [5]): 0%
23 | OC(Cc1ccccc1F)(Cn1ccnc1Cl)C1(Cl)CC1 (centres unmarked) [drawing 64, reference compound] |  |  |  |  |  |  |  |  | pest or weed control at 100 ppm (Alternaria brassicae; [4]): 0%; pest or weed control at 500 ppm (Alternaria brassicae; [5]): 0%
24 | N#Cc1cn(CC(O)(Cc2ccccc2F)C2(Cl)CC2)cn1 (centres unmarked) [drawing 68, reference compound] |  |  |  |  |  |  |  |  | pest or weed control at 100 ppm (Alternaria brassicae; [4]): 0%; pest or weed control at 500 ppm (Alternaria brassicae; [5]): 0%
